14 compounds from ChEMBL document CHEMBL1133248, “Synthesis and biological activity of phenoxyphenyl oxamic acid derivatives related to L-thyronine” (Bioorg Med Chem Lett, 2000) can be followed below.

Structures are written as SMILES.

A short description of assay [1]: Inhibition of [125I]L-T3 binding to rat hepatic 3,5,3''-triiodo-L-thyronine receptor.
Assay [2] has as its system Rattus norvegicus. The experiment in a line: Heart rate was determined after administration to rats at 25 mg/kg perorally for 7 days (in vivo on cardiovascular activity).
Assay [3] concerns Rattus norvegicus. Nature of the assay: Heart weight was determined after administration to rats at 25 mg/kg perorally for 7 days (in vivo on cardiovascular activity).
Assay [4] deals with Rattus norvegicus. The experiment in a line: Atrial tension was determined after administration to rats at 25 mg/kg for 7 days at 20 pulse/min.
Assay [5] has as its system Rattus norvegicus. The experiment in a line: Atrial tension was determined after administration to rats at 25 mg/kg for 7 days at 40 pulse/min.
The subject of assay [6] is Rattus norvegicus. Nature of the assay: Atrial tension was determined after administration to rats at 100 ug/Kg for 7 days at 20 pulse/min. The assay is classed as functional, Cardiac atrium.
For assay [7], the system named is Rattus norvegicus. The experiment in a line: Heart weight was determined after administration to rats at 100 ug/Kg perorally for 7 days (in vivo on cardiovascular activity). The assay is classed as functional.
For assay [8], the system named is Rattus norvegicus. Nature of the assay: Atrial tension was determined after administration to rats at 100 ug/Kg for 7 days at 40 pulse/min. It counts as functional, Cardiac atrium.
The subject of assay [9] is Rattus norvegicus. Nature of the assay: Heart rate was determined after administration to rats at 100 ug/Kg perorally for 7 days (in vivo on cardiovascular activity). It counts as functional.

As usually defined, the IC50 is the concentration that inhibits the measured activity by half. For the compound `CCc1cc(Oc2c(C)cc(NC(=O)C(=O)O)cc2C)ccc1O`, the IC50 in assay [1] amounted to 0.25 nM. That is a sub-nanomolar value. The compound `Cc1cc(Oc2c(C)cc(NC(=O)C(=O)O)cc2C)ccc1O` yielded an IC50 in [1] of 5.4 nM. Still for that read-out and setting: for `Cc1cc(NC(=O)C(=O)O)cc(C)c1Oc1ccc(O)c(-c2cccc(C(F)(F)F)c2)c1` the value was 0.92 nM; for `Cc1cc(NC(=O)C(=O)O)cc(C)c1Oc1cccc(-c2ccccc2)c1`, 32 nM. `Cc1cc(NC(=O)C(=O)O)cc(C)c1Oc1ccc(O)c(-c2cccc(F)c2)c1`: in assay [1], the IC50 amounted to 1.9 nM. In the case of `Cc1cc(NC(=O)C(=O)O)cc(C)c1Oc1ccc(O)c(C2CCCCC2)c1`, the Heart rate in the assay on Rattus norvegicus [2] was 6.3. The Heart weight with Rattus norvegicus [3] is listed as 4.4. Besides, the Developed tension with Rattus norvegicus [4] amounted to 7.6%; in the assay with Rattus norvegicus [5], 12.6%. In assay [1], the IC50 came out at 2.2 nM. Take `Cc1ccc(-c2cc(Oc3c(C)cc(NC(=O)C(=O)O)cc3C)ccc2O)cc1`: the IC50 in assay [1] came out at 9 nM. In other words, the single-digit nanomolar range. `Cc1cc(NC(=O)C(=O)O)cc(C)c1S(=O)(=O)c1ccc(O)c(C2CCCCC2)c1` registered an IC50 in assay [1] of 1.9 nM. `Cc1cc(NC(=O)C(=O)O)cc(C)c1Oc1ccc(O)c(-c2ccccc2Cl)c1`: the IC50 in [1] came to 0.17 nM.

Compound `Cc1cc(NC(=O)C(=O)O)cc(C)c1Sc1ccc(O)c(C2CCCCC2)c1` showed an IC50 in [1] of 2 nM. The same measure, in the same setting: the value for `Cc1cc(NC(=O)C(=O)O)cc(C)c1Oc1ccc(O)c(-c2cccc(Cl)c2)c1` was 0.64 nM.

For `N[C@@H](Cc1cc(I)c(Oc2ccc(O)c(I)c2)c(I)c1)C(=O)O` [LIOTHYRONINE], the Developed tension came to 18.2% in the assay with Rattus norvegicus [6] and 12.7% in the assay with Rattus norvegicus [8]. In the assay with Rattus norvegicus [7], the Heart weight amounted to 38.9. In the assay on Rattus norvegicus [9], the Heart rate worked out at 52.5.

Turning to `Cc1cc(NC(=O)C(=O)O)cc(C)c1Oc1ccc(O)c(-c2ccc(C(F)(F)F)cc2)c1`, the IC50 in assay [1] is 14 nM. In the assay with Rattus norvegicus [4], `Cc1cc(NC(=O)C(=O)O)cc(C)c1Oc1ccc(O)c(-c2ccccc2)c1` came in with a Developed tension of 3.7%. The compound further came in with an IC50 in assay [1] of 1.9 nM.
